Data reported in patent US10577618B2, “Class of glyphosate resistance genes” (Dow AgroSciences LLC, priority 2012, dated 2020).

Tests used:
T0 corn plants = assay: Post-emergence glyphosate tolerance of T0 dgt-28 corn (Table 19); type: in vivo, Zea mays
Experimental: Zea mays dgt-28 transformation events (T0) were allowed to acclimate in the greenhouse and were grown until plants had transitioned from tissue culture to greenhouse growing conditions (i.e., 2-4 new, normal looking leaves had emerged from the whorl). Plants were grown at 27° C. under 16 hour light:8 hour dark conditions in the greenhouse. The plants were then treated with commercial formulations of DURANGO DMA™ (containing the herbicide glyphosate) with the addition of 2% w/v ammonium-sulfate. Herbicide applications were made with a track sprayer at a spray volume of 187 L/ha, 50-cm spray height. T0 plants were sprayed with a range of glyphosate from 280-4480 g ae/ha glyphosate, which is capable of significant injury to untransformed corn lines. A lethal dose is defined as the rate that causes >95% injury to the B104 inbred.
T0 events of dgt-28 linked with TraP4, TraP5, TraP8 and TraP23 were generated by Agrobacterium transformation and were allowed to acclimate under controlled growth chamber conditions until 2-4 new, normal looking leaves had emerged from the whorl. Plants were assigned individual identification numbers and sampled for copy number analyses of both dgt-28 and aad-1. Based on copy number analyses, plants were selected for protein expression analyses. […]

T1 wheat = assay: Detailed phenotypic screen of T1 wheat events at different glyphosate dose rates (Tables 41, 42); type: in vivo, Triticum aestivum; conditions: untransformed donor wheat plants
Experimental: Four replicates of 12 T1 seeds per selected event and eight replicates (12 seeds each) of the untransformed donor wheat line Bobwhite MPB26RH were sown in 85 mm pots and grown to the 2-leaf stage under well-watered conditions at 25° C. with supplementary lighting providing a 12 hour photoperiod. The pots were placed in a randomised design to allow environmental effects to be removed during data analysis. At the 2-leaf stage, plant length and number of leaves was recorded for each plant before spraying with glyphosate. The first, second, third and fourth replicate of T1 plants for each selected event and the untransformed donor wheat line were sprayed at a dose rate of 420, 840, 1680 and 3360 g ai/ha, respectively. The fifth, sixth, seventh and eighth replicate of untransformed donor wheat line (total 48 plants) were not sprayed. At 7, 14 and 21 days after spraying, the plants were scored for plant length, number of leaves and phenotypic response to glyphosate using the scoring scale in Table 37. Any morphological abnormalities were also recorded. For scoring, the scorer was “blinded” with regard to plant genotype and spray dose rate to prevent scoring bias. Plants with delayed germination and poor establishment (criteria: plant length <6 cm) at the pre-spray scoring were excluded from subsequent analyses.
This differentiation was maximal at 21 days and was observed across all glyphosate dose rates. Table 41. To assess the tolerance of the transgenic events to glyphosate at each spray dose rate, null T1 plants (i.e. plants not carrying the transgene) were excluded from subsequent analyses. T1 plants with a response score of less than three at 21 days after spraying were considered to have the null genotype. […]

[1] = Replicate 1, 420 g ai/ha, 10 plants at pre-spray scoring
[2] = Replicate 2, 840 g ai/ha, 10 plants at pre-spray scoring
[3] = Replicate 3, 1680 g ai/ha, 11 plants at pre-spray scoring
[4] = Replicate 4, 3360 g ai/ha, 10 plants at pre-spray scoring

O=C(O)CNCP(=O)(O)O [glyphosate, N-(phosphonomethyl) glycine]
non-transformed plants controlled with glyphosate at concentrations as low as (T0 corn plants): ≥ 280 g ae/ha
No. surviving plants at 14 days after spraying (T1 wheat; [1]): 0
No. surviving plants at 21 days after spraying (T1 wheat; [1]): 0
No. surviving plants at 14 days after spraying (T1 wheat; [2]): 3
No. surviving plants at 21 days after spraying (T1 wheat; [2]): 0
No. surviving plants at 14 days after spraying (T1 wheat; [3]): 0
No. surviving plants at 21 days after spraying (T1 wheat; [3]): 0
No. surviving plants at 14 days after spraying (T1 wheat; [4]): 1
No. surviving plants at 21 days after spraying (T1 wheat; [4]): 0
